For series [1], the system named is rosacea. The note with it: cited from earlier work.
The test system of series [2] is patient with rosacea. Briefly: Application b.i.d. of other Delphinidin topical formulations to the face of a rosacea patient (Examples 11-13, present tense). The format is in vivo, human. An excerpt: A topical gel is made with delphinidin 3,5-O-diglucoside 7% (w/w) in a standard cosmetic disappearing gel base. Application b.i.d. to the face of a patient with lupus-related rosacea, for at least about one month alleviates lupus-related skin inflammation and the patient maintains normal, healthy skin. A topical cream is made with delphinidin 6% (w/w) in a standard cosmetic lipophilic cream base. […] A topical cream is made with delphinidin 3-O-sambubioside 5-O-glucoside 3% (w/w) in a standard cosmetic disappearing cream base. Application b.i.d. to the face of a patient with papulopustular rosacea with transient, central face pustules for two months reduces central facial erythema and eliminates transient central face pustules.

The mark [3] stands for this setting: Example 13, 3% (w/w) disappearing cream, papulopustular rosacea, two months.

Consider `CC[C@H]1OC(=O)[C@H](C)[C@@H](O[C@H]2C[C@@](C)(OC)[C@@H](O)[C@H](C)O2)[C@H](C)[C@@H](O[C@@H]2O[C@H](C)C[C@H](N(C)C)[C@H]2O)[C@](C)(O)C[C@@H](C)CN(C)[C@H](C)[C@@H](O)[C@]1(C)O` [Azithromycin], for which the “efficacy compared with 100 mg doxycycline” value in series [1] (only one study) is “may be as effective as 100 mg doxycycline”.

Regarding `O=C(O)CCCCCCCC(=O)O` [azelaic acid], in series [1] (prior-art treatment), the reducing rosacea symptoms result is “effective and safe”; the side effects entry is “caused mild burning, stinging or irritation”; the “time until improvements appear” value is on record as “three to six”.

As for `Brc1c(NC2=NCCN2)ccc2nccnc12` [brimonidine], the “duration of effect on redness after being applied” value in series [1] (prior-art treatment) is recorded as “up to 12 hours”.

For `OC[C@H]1O[C@@H](Oc2cc3c(O[C@@H]4O[C@H](CO)[C@@H](O)[C@H](O)[C@H]4O)cc(O)cc3[o+]c2-c2cc(O)c(O)c(O)c2)[C@H](O)[C@@H](O)[C@@H]1O` [delphinidin 3,5-O-diglucoside], in series [2] (Example 11, 7% (w/w) topical gel, lupus-related rosacea, at least about one month), the lupus-related skin inflammation entry was “alleviates”.

For `OC[C@H]1O[C@@H](Oc2cc(O)cc3[o+]c(-c4cc(O)c(O)c(O)c4)c(O[C@@H]4O[C@H](CO)[C@@H](O)[C@H](O)[C@H]4O[C@@H]4OC[C@@H](O)[C@H](O)[C@H]4O)cc23)[C@H](O)[C@@H](O)[C@@H]1O` [delphinidin 3-O-sambubioside 5-O-glucoside], in series [2] (setting [3]), the central facial erythema entry is “reduces” and the “transient central face pustules” value is reported as “eliminates”.

`Oc1cc(O)c2cc(O)c(-c3cc(O)c(O)c(O)c3)[o+]c2c1` [delphinidin, 2-(3,4,5-trihydroxyphenyl) chromenylium-3,5,7-triol]: the “flushing, persistent central facial erythema and telangiectasia” value in series [2] (Example 12, 6% (w/w) lipophilic cream, erythematotelangiectatic rosacea, two weeks) is reported as “measurably reduces”.

`C[C@H]1c2cccc(O)c2C(=O)C2=C(O)[C@]3(O)C(=O)C(C(N)=O)=C(O)[C@@H](N(C)C)[C@@H]3[C@@H](O)[C@@H]21` [doxycycline]: the “side effects of low dose compared with 100 mg” value in series [1] (low dose, 40 mg) was “much fewer side effects of diarrhea and nausea”.

On to `CC1=C(/C=C/C(C)=C/C=C/C(C)=C\C(=O)O)C(C)(C)CCC1` [isotretinoin], for which, in series [1] (low dose, 0.3 mg/kg), the “efficacy compared with doxycycline, pimples and pustules” value is given as “slightly more effective than 50-100 mg doxycycline”.

In the case of `Cc1ncc([N+](=O)[O-])n1CCO` [metronidazole], in series [1] (prior-art treatment), the reducing rosacea symptoms result is “effective and safe”; the side effects result was “very few people experienced mild itching, skin irritation and dry skin”; the “time until improvements appear” value is “three to six”.

On to Ivermectin, for which the “efficacy compared with placebo and metronidazole” value in series [1] (prior-art treatment) was “more effective than placebo and slightly more effective than metronidazole”.

(Values after patent US20220008447A1, “Rosacea Treatment Method” (priority 2019, published 2022).)
